Results reported in patent publication US20220145264A1, “CULTURE MEDIUM FOR MAMMALIAN EXPANDED POTENTIAL STEM CELLS, COMPOSITION, AND METHODS THEREOF” (THE UNIVERSITY OF HONG KONG, priority 2019, published 2022).
Entries after “also recorded” stand apart in the source; their conditions may differ.

Legend:
[1] = tested on: Dox dependent porcine iPSCs; test: Screening for the porcine EPSC culture conditions; type: cell-based; details: 1.0 μM, irrespective of whether Dox was present
Method: Dox dependent porcine iPSCs were dissociated in 0.25% trypsin/EDTA solution (Gibco, Cat. No. 25500-054) and seeded in 24-well STO feeder plates at a density of 1×10^4 cells per well. The cells were cultured in M15 supplemented with Dox (Sigma, Cat. No. D9891), Vitamin C (Sigma, Cat. No. 49752-100G) and 10 ng/ml bFGF (SCI) for two days before the culture media was switched to medium supplemented with indicated small molecules and cytokines (Supplementary Table 1). M15 and N2B27 media: see above. AlbumMax media: DMEM/F12 (Gibco, Cat. No. 21331-020), 20% AlbumMax II (Gibco, Cat. No. 11021-037), […] Human Insulin (Sigma, Cat. No. 91077C), 2×B27 Supplement, […] IGFII (R&D, Cat. No. 292-G2-250), 1×Glutamine Penicillin-Streptomycin (Thermo Fisher Scientific, Cat. No. 11140-050), 1×NEAA (Thermo Fisher Scientific, Cat. No. 10378-016) and 0.1 mM 2mercaptoethanol (Sigma, Cat. No. M6250). 20% KSR media: DMEM/F-12 (Gibco, Cat. No. 21331-020), 20% KnockOut Serum Replacement (KSR) (Gibco, Cat. No. 10828-028), 1× glutamine penicillin-streptomycin (Thermo Fisher Scientific, Cat. No. 11140-050), 1×NEAA (Thermo Fisher Scientific, Cat. No. 10378-016) and 0.1 mM 2-mercaptoethanol (Sigma, Cat. No. M6250). […]

H1-EPSCs = test: EB formation assay of H1-EPSCs, lineage gene expression; type: cell-based, human; details: 5.0 ng/ml supplemented in hEPSCM
Method: Porcine and human EPSCs were trypsinised and seeded in gelatinised 6-well plates at a density of 4×10^6 cells/well for pre-differentiation. M15 media supplemented with 20 ng/ml ACTIVIN A (SCI) and 5 μM Rock inhibitor Y-27632 were used to culture the replated cells. The next day, the cells were detached using 0.25% trypsin/EDTA (Gibco, Cat. No. 25500-054) and plated to ultra-low cell attachment U-bottom 96-well plates (Corning, Cat. No. 7007) at a density of 5,000-6,000 cells/well in 200 μl M10 medium. After 7-8 days of growing, the EBs were collected for analysis. 0.25% (v/v) poly-vinyl alcohol (Sigma, Cat. No. 341584) was added in the medium to help cells aggregation.
Total RNA was isolated using an RNeasy Mini Kit (Qiagen, Cat. No. 74106) for cultured cells or RNeasy Micro Kit (Qiagen, Cat. No. 74034) for sorted NANOS3-mCherry^+ cells. RNA was subsequently quantified and treated with gDNA WipeOut to remove genomic DNA. Complementary DNA (cDNA) was prepared using a QuantiTect Reverse Transcription Kit (Qiagen, Cat. No. 205311). RT-qPCR primers or TaqMan Gene Expression Assays (Life Technologies) are listed in Supplementary Table 10 and 11. […] Gene expression was determined relative to GAPDH using the […]. […]

For `O=C(NOC[C@H](O)CO)c1ccc(F)c(F)c1Nc1ccc(I)cc1F` [PD0325901], the “survival of porcine iPSCs / porcine cells in the screens” value [1] was “deleterious to porcine cells” and the “survival of porcine iPSCs / porcine cells in the screens” value ([1]; listed as PD-0325901) was “rapidly lost”.
“ACTIVIN A: Human Recombinant ACTIVIN A cytokine” was tested, and the “embryonic mesendoderm lineage differentiation / lineage gene expression in EBs” value (H1-EPSCs) was “stronger propensity for embryonic mesendoderm lineage differentiation; also recorded: substantially increased”.
